Source: PubChem BioAssay (NCI)
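Exposure lasted 48 hours, with cells grown in 96-well plates and compounds tested at five concentrations. TGI: concentration producing complete growth inhibition.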

Columns and labels:
Assay in all cases: DTP human tumour cell line panel, 48 h
UACC-257 melanoma = tested on: UACC-257 melanoma
OVCAR-5 ovarian = tested on: OVCAR-5 ovarian
HCT-15 colon = tested on: HCT-15 colon
SW-620 colon = tested on: SW-620 colon
A498 renal = tested on: A498 renal
NCI-H23 lung = tested on: NCI-H23 lung
RXF 393 renal = tested on: RXF 393 renal
SK-OV-3 ovarian = tested on: SK-OV-3 ovarian
NCI-H226 lung = tested on: NCI-H226 lung
SK-MEL-28 melanoma = tested on: SK-MEL-28 melanoma
NCI-H460 lung = tested on: NCI-H460 lung
RPMI-8226 leukemia = tested on: RPMI-8226 leukemia
SR leukemia = tested on: SR leukemia
U251 CNS = tested on: U251 CNS
NCI/ADR-RES ovarian = tested on: NCI/ADR-RES ovarian
PC-3 prostate = tested on: PC-3 prostate

SMILES	TGI (UACC-257 melanoma)	TGI (OVCAR-5 ovarian)	TGI (HCT-15 colon)	TGI (SW-620 colon)	TGI (A498 renal)	TGI (NCI-H23 lung)	TGI (RXF 393 renal)	TGI (SK-OV-3 ovarian)	TGI (NCI-H226 lung)	TGI (SK-MEL-28 melanoma)	TGI (NCI-H460 lung)	TGI (RPMI-8226 leukemia)	TGI (SR leukemia)	TGI (U251 CNS)	TGI (NCI/ADR-RES ovarian)	TGI (PC-3 prostate)
CC(C)c1cccc(C(C)C)c1NC(=O)C(=O)Cc1nc2ccc([N+](=O)[O-])cc2[nH]c1=O	> 100 µM	> 100 µM	48.9 µM	> 100 µM	> 100 µM	> 100 µM	> 100 µM	> 100 µM	> 100 µM	> 100 µM	> 100 µM	–	–	–	–	–
CC1=C(c2nc3ccccc3s2)C(=O)OC1(C)C	> 100 µM	> 100 µM	> 100 µM	> 100 µM	–	> 100 µM	–	> 100 µM	> 100 µM	> 100 µM	> 100 µM	> 100 µM	> 100 µM	> 100 µM	–	–
Cc1cc2ncn(-c3nc4ccccc4nc3C(C#N)S(C)(=O)=O)c2cc1C (stereo not given)	> 100 µM	> 100 µM	> 100 µM	> 100 µM	> 100 µM	> 100 µM	–	> 100 µM	> 100 µM	> 100 µM	> 100 µM	> 100 µM	> 100 µM	> 100 µM	–	–
COCC(C)(C)N=CN1Cc2cc3ccccc3nc2C1	> 100 µM	–	> 100 µM	> 100 µM	–	> 100 µM	> 100 µM	> 100 µM	> 100 µM	> 100 µM	> 100 µM	> 100 µM	> 100 µM	> 100 µM	–	–
CC(=O)Nc1[nH]n(C)c(=O)c1-c1nnc(C)s1	> 100 µM	> 100 µM	> 100 µM	> 100 µM	> 100 µM	> 100 µM	> 100 µM	> 100 µM	> 100 µM	> 100 µM	> 100 µM	> 100 µM	> 100 µM	> 100 µM	–	–
CNC(=O)c1n[nH]n(C2CCCCC2)c1=S	> 100 µM	> 100 µM	> 100 µM	> 100 µM	> 100 µM	> 100 µM	> 100 µM	> 100 µM	> 100 µM	> 100 µM	> 100 µM	> 100 µM	> 100 µM	> 100 µM	> 100 µM	> 100 µM
CCCCCCCC/C=C1\CCC(CN(C)C)C1=O (stereo not given)	16.8 µM	35.5 µM	7.5 µM	8.69 µM	30.7 µM	24.4 µM	–	30.9 µM	37.3 µM	13.3 µM	28.4 µM	0.763 µM	13.1 µM	4.38 µM	–	–
COC(=O)C(=O)C(C(=O)OC)C(=O)C(=O)Nc1c(C)cccc1C (stereo not given)	> 100 µM	> 100 µM	> 100 µM	> 100 µM	> 100 µM	> 100 µM	> 100 µM	> 100 µM	> 100 µM	> 100 µM	> 100 µM	> 100 µM	> 100 µM	> 100 µM	–	–
